# Data published in patent publication US20150105252A1, “SUBSTITUTED PYRAZOLES AS HERBICIDES” (E I DU PONT DE NEMOURS AND COMPANY, priority 2013, published 2015).
# Assays:
# [1] = test system: wheat; test: Test A preemergence; format: in vivo, Triticum aestivum
# Summary of the method: (§1)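 Visual injury rating, 0–100 (0 no effect, 100 complete control), vs untreated controls ~10 days after treatment in greenhouse. Pre: directed soil spray on seeded loam/sand. Post: 2–10 cm plants, 1–2 leaf stage. Formulation: non-phytotoxic solvent mix + surfactant.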
# [2] = test system: crabgrass, large; test: Test A postemergence; format: in vivo, Digitaria sanguinalis; conditions: Postemergence, 1000 g ai/ha; visual rating after approx. 10 days, 0 to 100 scale (0 no effect, 100 complete control)
# Summary of the method: as §1
# [3] = test system: foxtail, giant; test: Test A postemergence; format: in vivo, Setaria faberii; conditions: Postemergence, 1000 g ai/ha; visual rating after approx. 10 days, 0 to 100 scale (0 no effect, 100 complete control)
# Summary of the method: as §1
# [4] = test system: morningglory; test: Test A postemergence; format: in vivo, Ipomoea spp.; conditions: Postemergence, 1000 g ai/ha; visual rating after approx. 10 days, 0 to 100 scale (0 no effect, 100 complete control)
# Summary of the method: as §1
# [5] = test system: velvetleaf; test: Test A postemergence; format: in vivo, Abutilon theophrasti; conditions: Postemergence, 1000 g ai/ha; visual rating after approx. 10 days, 0 to 100 scale (0 no effect, 100 complete control)
# Summary of the method: as §1
# [6] = test system: corn; test: Test A postemergence; format: in vivo, Zea mays; conditions: Postemergence, 1000 g ai/ha; visual rating after approx. 10 days, 0 to 100 scale (0 no effect, 100 complete control)
# Summary of the method: as §1
# [7] = test system: pigweed; test: Test C preemergence; format: in vivo, Amaranthus retroflexus
# Summary of the method: (§2)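 Scores of 0 (no effect) to 100 (complete control) were assigned by eye after 13–15 days, comparing treated pots with controls. Soil-applied (preemergence) treatments went onto seeds in loam and sand; foliar (postemergence) treatments onto 1- to 4-leaf plants in peat medium.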
# [8] = test system: ragweed; test: Test C preemergence; format: in vivo, Ambrosia elation
# Summary of the method: as §2
# [9] = test system: soybean; test: Test C preemergence; format: in vivo, Glycine max
# Summary of the method: as §2
# [10] = test system: wheat; test: Test C postemergence; format: in vivo, Triticum aestivum; conditions: postemergence; for Wheat plant response rating: 62 g ai/ha, scale 0 to 100
# Description: (§3) Seeds of plant species selected from blackgrass (Alopecurus myosuroides), ryegrass, Italian (Italian ryegrass, Lolium multiflorum), wheat (winter wheat, Triticum aestivum), galium (catchweed bedstraw, Galium aparine), corn (Zea mays), crabgrass, large (large crabgrass, Digitaria sanguinalis), foxtail, giant (giant foxtail, Setaria faberii), johnsongrass (Sorghum halepense), lambsquarters (Chenopodium album), morningglory (Ipomoea coccinea), nutsedge, yellow (yellow nutsedge, Cyperus esculentus), pigweed (redroot pigweed, Amaranthus retroflexus), ragweed (common ragweed, Ambrosia elation), soybean (Glycine max), barnyardgrass (Echinochloa crus-galli), oilseed rape (Brassica napus), waterhemp (common waterhemp, Amaranthus rudis), oat, wild (wild oat, Avena fatua), kochia (Kochia scoparia), Surinam grass (Brachiaria decumbens), foxtail, green (green foxtail, Setaria viridis), goosegrass (Eleusine indica), bromegrass, downy (downy bromegrass, Bromus tectorum), nightshade (eastern black nightshade, Solanum ptycanthum), cocklebur (common cocklebur, Xanthium strumarium), cupgrass, woolly (woolly cupgrass, Eriochloa villosa), bermudagrass (Cynodon dactylon), sunflower, (common oilseed sunflower, Helianthus annuus), Russian thistle (Salsola kali), and velvetleaf (Abutilon theophrasti) were planted into a blend of loam soil and sand and treated preemergence with test chemicals formulated in a non-phytotoxic solvent mixture which included a surfactant.
# (§4) At the same time, plants selected from these crop and weed species and also chickweed (common chickweed, Stellaria media), canarygrass (littleseed canarygrass, Phalaris minor), and deadnettle (henbit deadnettle, Lamium amplexicaule), were planted in pots containing Redi-Earth® planting medium (Scotts Company, 14111 Scottslawn Road, Marysville, Ohio 43041) comprising spaghnum peat moss, vermiculite, wetting agent and starter nutrients and treated with postemergence applications of test chemicals formulated in the same manner. Plants ranged in height from 2 to 18 cm (1- to 4-leaf stage) for postemergence treatments. Treated plants and controls were maintained in a greenhouse for 13 to 15 days, after which time all species were compared to controls and visually evaluated. Plant response ratings, summarized in Table C, are based on a scale of 0 to 100 where 0 is no effect and 100 is complete control. A dash (-) response means no test result.
# [11] = test system: corn; test: Test C postemergence; format: in vivo, Zea mays; conditions: for Corn plant response rating: scale 0 to 100
# Description: as §3, §4
# [12] = test system: lambsquarters; test: Test C postemergence; format: in vivo, Chenopodium album; conditions: for Lambsquarters plant response rating: scale 0 to 100
# Description: as §3, §4
# [13] = test system: ragweed; test: Test C postemergence; format: in vivo, Ambrosia elation; conditions: postemergence
# Summary of the method: as §2
# [14] = test system: soybean; test: Test C postemergence; format: in vivo, Glycine max; conditions: postemergence; for Soybean plant response rating: 62 g ai/ha, scale 0 to 100
# Description: as §3, §4
# [15] = test system: velvetleaf; test: Test C postemergence; format: in vivo, Abutilon theophrasti; conditions: postemergence; for Velvetleaf plant response rating: 62 g ai/ha, scale 0 to 100
# Description: as §3, §4
# [16] = Preemergence, 1000 g ai/ha, 0 to 100 scale, 0 no effect, 100 complete control
# [17] = preemergence, 31 g ai/ha, scale 0 to 100 (0 no effect, 100 complete control), 13 to 15 days
# [18] = preemergence, 62 g ai/ha, 13 to 15 days, scale 0 to 100, 0 = no effect, 100 = complete control
# [19] = preemergence, 125 g ai/ha, scale 0 to 100, 0 is no effect, 100 is complete control
# [20] = 250 g ai/ha, scale 0 to 100 (0 no effect, 100 complete control)
# [21] = 125 g ai/ha, scale 0 to 100, 0 no effect, 100 complete control
# [22] = postemergence, 250 g ai/ha, scale 0 to 100 (0 no effect, 100 complete control)
# [23] = postemergence, 125 g ai/ha, scale 0 to 100, 0 no effect, 100 complete control
# [24] = postemergence, 62 g ai/ha, scale 0 to 100, 0 no effect, 100 complete control
Compound,"Wheat plant response rating [1, 16]","Crabgrass, Large plant response rating [2]","Foxtail, Giant plant response rating [3]",Morningglory plant response rating [4],Velvetleaf plant response rating [5],Corn plant response rating [6],Wheat plant response rating [10],"Plant response rating, Wheat [10, 20]","Plant response rating, Wheat [10, 21]","Corn plant response rating ([11]; Postemergence, 31 g ai/ha)","Plant response rating, Corn [11, 22]","Plant response rating, Corn [11, 23]","Lambsquarters plant response rating ([12]; Postemergence, 31 g ai/ha)","Plant response rating, Lambsquarters [12, 22]","Plant response rating, Lambsquarters [12, 23]","Plant response rating, Ragweed [13, 20]",Soybean plant response rating [14],"Plant response rating, Soybean [14, 20]","Plant response rating, Soybean [14, 21]",Velvetleaf plant response rating [15],other results
Cc1cc(C(=O)NCC(F)(F)F)nn1Cc1ccnc(C(F)(F)F)c1 [Compound 74],100,100,90,100,100,100,0,5,0,10,55,20,20,90,80,70,80,85,85,30,"Wheat plant response rating ([1]; preemergence, 500 g ai/ha, visual injury after approx. 10 days, 0 to 100 scale (0 no effect, 100 complete control)): 30; Plant response rating (scale of 0 to 100), Pigweed ([7]; Preemergence, 250 g ai/ha): 100; Pigweed plant response rating [7, 17]: 100; Plant response rating, Pigweed [7, 18]: 100; Pigweed plant response rating [7, 19]: 100; Plant response rating (scale of 0 to 100), Ragweed ([8]; Preemergence, 250 g ai/ha): 90; Ragweed plant response rating [8, 17]: 30; Plant response rating, Ragweed [8, 18]: 60; Ragweed plant response rating [8, 19]: 80; Plant response rating (scale of 0 to 100), Soybean ([9]; Preemergence, 250 g ai/ha): 98; Soybean plant response rating [9, 17]: 25; Plant response rating, Soybean [9, 18]: 55; Soybean plant response rating [9, 19]: 85; Corn plant response rating ([11]; postemergence, 62 g ai/ha): 10; Lambsquarters plant response rating ([12]; postemergence, 62 g ai/ha): 35; Ragweed plant response rating ([13]; 62 g ai/ha, scale 0 to 100): 45; Plant response rating, Velvetleaf [15, 20]: 40; Plant response rating, Velvetleaf [15, 21]: 30"
CCc1cc(C(=O)NCC(F)(F)F)nn1Cc1cccc(OC(F)(F)F)c1 [Compound 20],20,80,70,100,90,30,15,25,20,15,25,20,60,75,65,25,45,75,60,45,"Plant response rating, Corn [11, 24]: 20; Plant response rating, Lambsquarters [12, 24]: 60; Plant response rating, Ragweed ([13]; 62 g ai/ha, scale 0 to 100, 0 no effect, 100 complete control): 15; Plant response rating, Ragweed [13, 21]: 15; Plant response rating, Velvetleaf [15, 20]: 60; Plant response rating, Velvetleaf [15, 21]: 45"
